Experimental data as given in US12209087B2, “AKT1 modulators” (Alterome Therapeutics, Inc., priority 2022, dated 2025).
pIC50: −log10 of the molar value.

Biological target: T1, full length AKT E17K (Homo sapiens, UniProt P31749, E17K)
T1 construct: host or cells: HEK-293 (ATCC CRL-1573)
Assay: NanoBRET Target Engagement (TE) Assay
Format: cell-based
Conditions: competitive displacement of tracer in cells, read-out: AKT1 E17K IC50
In short: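 Compound and tracer incubated 2 h before luminescence at donor 450 nm and acceptor 600 nm, with extracellular signal inhibited. EC50 by sigmoidal variable-slope regression.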

T1 sequence (P31749 whole entry E17K): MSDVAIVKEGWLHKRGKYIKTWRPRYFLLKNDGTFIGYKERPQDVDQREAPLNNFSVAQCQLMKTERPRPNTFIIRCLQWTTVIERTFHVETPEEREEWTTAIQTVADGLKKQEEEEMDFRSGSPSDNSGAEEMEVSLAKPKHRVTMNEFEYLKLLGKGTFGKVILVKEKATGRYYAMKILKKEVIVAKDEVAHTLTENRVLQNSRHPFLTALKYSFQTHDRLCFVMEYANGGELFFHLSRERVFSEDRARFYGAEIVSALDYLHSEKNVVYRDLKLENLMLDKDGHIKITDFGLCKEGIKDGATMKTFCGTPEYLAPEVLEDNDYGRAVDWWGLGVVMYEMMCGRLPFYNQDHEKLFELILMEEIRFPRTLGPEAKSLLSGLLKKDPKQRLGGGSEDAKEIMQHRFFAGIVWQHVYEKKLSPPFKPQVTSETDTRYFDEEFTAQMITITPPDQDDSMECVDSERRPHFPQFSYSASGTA

SMILES	pIC50
N#Cc1nccc(N2CC3(CN(Cc4ccc(-n5c(-c6cccnc6N)nc6ccc(-c7ccccc7)nc65)cc4)C3)C2)n1 [Example 366, 4-(6-(4-(2-(2-Aminopyridin-3-yl)-5-phenyl-3H-imidazo[4,5-b]pyridin-3-yl)benzyl)-2,6-diazaspiro[3.3]heptan-2-yl)pyrimidine-2-carbonitrile]	> 7.82
N#Cc1nccc(N2C[C@@H]3CN(Cc4ccc(-n5c(-c6cccnc6N)nc6ccc(-c7ccccc7)nc65)cc4)C[C@H]3C2)n1 [Example 367, 4-((3aS,6aS)-5-(4-(2-(2-aminopyridin-3-yl)-5-phenyl-3H-imidazo[4,5-b]pyridin-3-yl)benzyl)hexahydropyrrolo[3,4-c]pyrrol-2(1H)-yl)pyrimidine-2-carbonitrile]	> 7.82
N#Cc1ncnc(N2CCN(Cc3ccc(-n4c(-c5cccnc5N)nc5ccc(-c6ccc(F)cc6)nc54)cc3)CC2)n1 [Example 368, 4-(4-(4-(2-(2-Aminopyridin-3-yl)-5-(4-fluorophenyl)-3H-imidazo[4,5-b]pyridin-3-yl)benzyl)piperazin-1-yl)-1,3,5-triazine-2-carbonitrile]	> 7.82
N#Cc1ncnc(N2CCN(Cc3ccc(-n4c(-c5cccnc5N)nc5ccc(-c6ccc(Cl)cc6)nc54)cc3)CC2)n1 [Example 369, 4-(4-(4-(2-(2-Aminopyridin-3-yl)-5-(4-chlorophenyl)-3H-imidazo[4,5-b]pyridin-3-yl)benzyl)piperazin-1-yl)-1,3,5-triazine-2-carbonitrile]	7.22 to 7.82
N#Cc1nccc(NC2CCN(Cc3ccc(-n4c(-c5cccnc5N)nc5ccc(-c6ccc(F)cc6)nc54)cc3)CC2)n1 [Example 370, 4-((1-(4-(2-(2-Aminopyridin-3-yl)-5-(4-fluorophenyl)-3H-imidazo[4,5-b]pyridin-3-yl)benzyl)piperidin-4-yl)amino)pyrimidine-2-carbonitrile]	> 7.82
N#Cc1ccnc(NC2CCN(Cc3ccc(-n4c(-c5cccnc5N)nc5ccc(-c6ccc(Cl)cc6)nc54)cc3)CC2)n1 [Example 371, 2-((1-(4-(2-(2-Aminopyridin-3-yl)-5-(4-chlorophenyl)-3H-imidazo[4,5-b]pyridin-3-yl)benzyl)piperidin-4-yl)amino)pyrimidine-4-carbonitrile]	6.22 to 7.22
N#Cc1ccnc(NC2CCN(Cc3ccc(-n4c(-c5cccnc5N)nc5ccc(-c6cccc(Cl)c6)nc54)cc3)CC2)n1 [Example 372, 2-((1-(4-(2-(2-Aminopyridin-3-yl)-5-(3-chlorophenyl)-3H-imidazo[4,5-b]pyridin-3-yl)benzyl)piperidin-4-yl)amino)pyrimidine-4-carbonitrile]	7.22 to 7.82
N#Cc1cc(NC2CCN(Cc3ccc(-n4c(-c5cccnc5N)nc5ccc(-c6cccc(Cl)c6)nc54)cc3)CC2)ncn1 [Example 373, 6-((1-(4-(2-(2-Aminopyridin-3-yl)-5-(3-chlorophenyl)-3H-imidazo[4,5-b]pyridin-3-yl)benzyl)piperidin-4-yl)amino)pyrimidine-4-carbonitrile]	7.22 to 7.82
N#Cc1cc(N2CCN(Cc3ccc(-n4c(-c5cccnc5N)nc5ccc(-c6cccc(Cl)c6)nc54)cc3)CC2)ncn1 [Example 374, 6-(4-(4-(2-(2-Aminopyridin-3-yl)-5-(3-chlorophenyl)-3H-imidazo[4,5-b]pyridin-3-yl)benzyl)piperazin-1-yl)pyrimidine-4-carbonitrile]	7.22 to 7.82
N#Cc1nccc(N2C[C@@H]3C[C@H]2CN3Cc2ccc(-n3c(-c4cccnc4N)nc4ccc(-c5ccccc5)nc43)cc2)n1 [Example 375, 4-((1S,4S)-5-(4-(2-(2-Aminopyridin-3-yl)-5-phenyl-3H-imidazo[4,5-b]pyridin-3-yl)benzyl)-2,5-diazabicyclo[2.2.1]heptan-2-yl)pyrimidine-2-carbonitrile]	7.22 to 7.82
N#Cc1cc(N2C[C@@H]3C[C@H]2CN3Cc2ccc(-n3c(-c4cccnc4N)nc4ccc(-c5ccccc5)nc43)cc2)ncn1 [Example 376, 6-((1S,4S)-5-(4-(2-(2-Aminopyridin-3-yl)-5-phenyl-3H-imidazo[4,5-b]pyridin-3-yl)benzyl)-2,5-diazabicyclo[2.2.1]heptan-2-yl)pyrimidine-4-carbonitrile]	6.22 to 7.22
N#Cc1ccnc(N2C[C@@H]3C[C@H]2CN3Cc2ccc(-n3c(-c4cccnc4N)nc4ccc(-c5ccccc5)nc43)cc2)n1 [Example 377, 2-((1S,4S)-5-(4-(2-(2-Aminopyridin-3-yl)-5-phenyl-3H-imidazo[4,5-b]pyridin-3-yl)benzyl)-2,5-diazabicyclo[2.2.1]heptan-2-yl)pyrimidine-4-carbonitrile]	6.22 to 7.22
C[C@@H]1CN(Cc2ccc(-n3c(-c4cccnc4N)nc4ccc(-c5ccccc5)nc43)cc2)C[C@H](C)N1c1ccnc(C#N)n1 [Example 378, 4-((2S,6R)-4-(4-(2-(2-Aminopyridin-3-yl)-5-phenyl-3H-imidazo[4,5-b]pyridin-3-yl)benzyl)-2,6-dimethylpiperazin-1-yl)pyrimidine-2-carbonitrile]	6.22 to 7.22
C[C@@H]1CN(Cc2ccc(-n3c(-c4cccnc4N)nc4ccc(-c5ccccc5)nc43)cc2)C[C@H](C)N1c1nccc(C#N)n1 [Example 379, 2-((2S,6R)-4-(4-(2-(2-Aminopyridin-3-yl)-5-phenyl-3H-imidazo[4,5-b]pyridin-3-yl)benzyl)-2,6-dimethylpiperazin-1-yl)pyrimidine-4-carbonitrile]	5.00 to 6.22
C[C@@H]1CN(Cc2ccc(-n3c(-c4cccnc4N)nc4ccc(-c5ccccc5)nc43)cc2)C[C@H](C)N1c1cc(C#N)ncn1 [Example 380, 6-((2S,6R)-4-(4-(2-(2-Aminopyridin-3-yl)-5-phenyl-3H-imidazo[4,5-b]pyridin-3-yl)benzyl)-2,6-dimethylpiperazin-1-yl)pyrimidine-4-carbonitrile]	5.00 to 6.22
N#Cc1nccc(NC2CCN(Cc3ccc(-n4c(-c5cccnc5N)nc5ccc(-c6ccc[nH]c6=O)nc54)cc3)CC2)n1 [Example 381, 4-((1-(4-(2-(2-Aminopyridin-3-yl)-5-(2-oxo-1,2-dihydropyridin-3-yl)-3H-imidazo[4,5-b]pyridin-3-yl)benzyl)piperidin-4-yl)amino)pyrimidine-2-carbonitrile]	> 7.82
N#Cc1ncnc(NC2CCN(Cc3ccc(-n4c(-c5cccnc5N)nc5ccc(-c6ccc(Cl)cc6)nc54)cc3)CC2)n1 [Example 382, 4-((1-(4-(2-(2-Aminopyridin-3-yl)-5-(4-chlorophenyl)-3H-imidazo[4,5-b]pyridin-3-yl)benzyl)piperidin-4-yl)amino)-1,3,5-triazine-2-carbonitrile]	7.22 to 7.82
N#Cc1nccc(N2CCN(Cc3ccc(-n4c(-c5cccnc5N)nc5ccc(-c6cnccc6C#N)nc54)cc3)CC2)n1 [Example 383, 4-(4-(4-(2-(2-Aminopyridin-3-yl)-5-(4-cyanopyridin-3-yl)-3H-imidazo[4,5-b]pyridin-3-yl)benzyl)piperazin-1-yl)pyrimidine-2-carbonitrile]	> 7.82
N#Cc1nccc(NC2CCN(Cc3ccc(-n4c(-c5cccnc5N)nc5ccc(-c6cnccc6C#N)nc54)cc3)CC2)n1 [Example 384, 4-((1-(4-(2-(2-Aminopyridin-3-yl)-5-(4-cyanopyridin-3-yl)-3H-imidazo[4,5-b]pyridin-3-yl)benzyl)piperidin-4-yl)amino)pyrimidine-2-carbonitrile]	7.22 to 7.82
